Laboratory results as given in paper doi:10.1101/2024.03.29.587371v1 (biorxiv, 2024).
Blank lines part the entries; values can stand above or below the compound they belong to. Residues, ends and D or L forms follow the SMILES beside them.

Legend:
Format in all cases: biochemical
AtFBA4 (SUMO-AtFBA4) [1] = molecular target: T1, AtFBA4 (SUMO-AtFBA4) (Arabidopsis thaliana, UniProt F4KGQ0); assay: coupled NADH assay, activity relative to control; details: read-out: % residual activity at 5.0 mM
T1 sequence (F4KGQ0 1-393): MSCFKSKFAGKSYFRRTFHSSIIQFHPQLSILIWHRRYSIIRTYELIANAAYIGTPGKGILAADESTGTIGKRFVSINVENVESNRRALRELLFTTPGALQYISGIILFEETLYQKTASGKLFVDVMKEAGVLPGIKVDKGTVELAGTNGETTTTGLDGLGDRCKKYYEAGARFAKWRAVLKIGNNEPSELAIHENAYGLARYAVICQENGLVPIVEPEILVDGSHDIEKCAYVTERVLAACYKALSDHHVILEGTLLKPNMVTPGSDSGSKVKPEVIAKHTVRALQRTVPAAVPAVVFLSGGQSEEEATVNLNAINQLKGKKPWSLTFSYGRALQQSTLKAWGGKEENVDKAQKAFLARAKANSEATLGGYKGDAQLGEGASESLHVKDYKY

AtFBA5 (SUMO-AtFBA5) [2] = molecular target: T2, AtFBA5 (SUMO-AtFBA5) (Arabidopsis thaliana, UniProt O65581); assay: coupled NADH assay, activity relative to control
T2 sequence (O65581 1-358): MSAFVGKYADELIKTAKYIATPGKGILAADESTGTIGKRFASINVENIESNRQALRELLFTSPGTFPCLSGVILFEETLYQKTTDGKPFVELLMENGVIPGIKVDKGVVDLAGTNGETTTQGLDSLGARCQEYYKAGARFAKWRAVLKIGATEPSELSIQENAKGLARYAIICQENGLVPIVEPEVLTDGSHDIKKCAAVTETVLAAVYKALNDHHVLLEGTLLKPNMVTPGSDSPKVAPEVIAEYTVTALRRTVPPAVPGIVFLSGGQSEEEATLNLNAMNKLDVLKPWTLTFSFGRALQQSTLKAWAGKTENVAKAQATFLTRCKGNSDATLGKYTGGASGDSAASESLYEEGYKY

AtFBA4 (SUMO-AtFBA4) [3] = molecular target: T1, AtFBA4 (SUMO-AtFBA4); assay: coupled NADH assay at […] nm, FBP saturation curves with inhibitor
AtFBA5 (SUMO-AtFBA5) [4] = molecular target: T2, AtFBA5 (SUMO-AtFBA5); assay: as above

SMILES: O=P(O)(O)OP(=O)(O)O [PPi]
% of control activity at 1.0 mM (AtFBA5 (SUMO-AtFBA5) [2]; pH 7.5, 250 µM FBP): 144 ± 10%

SMILES: O=c1c(O)c(-c2ccc(O)cc2O)oc2cc(O)cc(O)c12 [morin, 3,5,7,2′,4′-pentahydroxyflavone]
Ki (AtFBA4 (SUMO-AtFBA4) [3]): 80 ± 10 µM
Ki (AtFBA5 (SUMO-AtFBA5) [4]): 63 ± 4 µM

Second part, the compound after the results:

remaining activity at 5000 µM (AtFBA4 (SUMO-AtFBA4) [1]): 69 ± 2%
SMILES: O=C(O)CCC(=O)C(=O)O [2-OG]

remaining activity at 5000 µM (AtFBA4 (SUMO-AtFBA4) [1]): 68 ± 12%
SMILES: O=C(O)C[C@H](O)C(=O)O [Malate]

remaining activity at 500 µM (AtFBA5 (SUMO-AtFBA5) [2]; read-out: % residual activity at 0.50 mM): 82 ± 5%
SMILES: N[C@@H](Cc1ccc(O)cc1)C(=O)N[C@@H](CC(=O)O)C(=O)O [Tyr-Asp] (H-Tyr-Asp-OH)
